Experimental data from article PMC8514546, “Structural basis of the P4B ATPase lipid flippase activity” (Nature Communications, 2021).

Experiments:
Neo1 [1] = biological target: T1, Neo1 (Saccharomyces cerevisiae, UniProt P40527); experiment: lipid-stimulated ATP hydrolysis, released phosphate by BIOMOL Green; format: biochemical; settings: 0.25 mM ATP, 10 mM MgCl2, pH 7.4, 37 °C, LMNG/CHS, lipid in cholate; transport substrate, acyl chain not stated
T1 construct: full length (1151 residues), N-terminal triple FLAG tag, overexpressed in S. cerevisiae from pRS423 with GAP promoter; monomer, purified in LMNG/CHS
T1 sequence (P40527 1-1151): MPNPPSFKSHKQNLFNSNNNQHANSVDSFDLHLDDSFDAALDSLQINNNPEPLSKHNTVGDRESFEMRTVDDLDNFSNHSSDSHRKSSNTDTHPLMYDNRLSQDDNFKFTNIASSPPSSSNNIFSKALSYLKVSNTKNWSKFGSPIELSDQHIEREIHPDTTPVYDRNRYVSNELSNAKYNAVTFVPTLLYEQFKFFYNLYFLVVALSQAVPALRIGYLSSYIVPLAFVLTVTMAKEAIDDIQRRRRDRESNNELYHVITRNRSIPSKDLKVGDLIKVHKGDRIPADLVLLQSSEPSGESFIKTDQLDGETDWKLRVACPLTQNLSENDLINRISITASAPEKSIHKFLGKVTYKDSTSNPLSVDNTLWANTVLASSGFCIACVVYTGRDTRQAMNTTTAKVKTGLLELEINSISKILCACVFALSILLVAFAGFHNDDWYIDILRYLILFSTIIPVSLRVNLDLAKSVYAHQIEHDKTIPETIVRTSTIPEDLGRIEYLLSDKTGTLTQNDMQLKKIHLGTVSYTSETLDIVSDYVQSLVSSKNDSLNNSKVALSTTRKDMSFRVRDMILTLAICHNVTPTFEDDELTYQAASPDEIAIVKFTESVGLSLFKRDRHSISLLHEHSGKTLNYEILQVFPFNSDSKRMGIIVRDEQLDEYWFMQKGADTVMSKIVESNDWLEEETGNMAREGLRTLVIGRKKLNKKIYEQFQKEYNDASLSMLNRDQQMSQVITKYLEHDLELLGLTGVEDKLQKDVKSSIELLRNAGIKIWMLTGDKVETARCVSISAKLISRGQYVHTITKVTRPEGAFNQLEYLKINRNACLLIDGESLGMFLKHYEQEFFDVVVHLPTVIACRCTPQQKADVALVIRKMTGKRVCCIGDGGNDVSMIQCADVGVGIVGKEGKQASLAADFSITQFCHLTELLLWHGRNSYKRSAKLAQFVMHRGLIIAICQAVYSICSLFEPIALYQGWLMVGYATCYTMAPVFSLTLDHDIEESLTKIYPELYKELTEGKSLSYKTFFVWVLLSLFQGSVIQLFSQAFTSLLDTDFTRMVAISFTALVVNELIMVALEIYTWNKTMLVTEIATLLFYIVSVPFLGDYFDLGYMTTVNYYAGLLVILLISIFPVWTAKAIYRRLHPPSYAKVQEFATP

Neo1 [2] = biological target: T1, Neo1; experiment: cryo-EM structure, […] Å; format: binding; settings: E1-ATP state; AMPPCP at the N and P domain interface; 1 mM (Results) or 2 mM (Methods) AMPPCP, 5 mM MgCl2

| Compound | Km (Neo1 [1]) [µM] | cryo-EM structure, 5.6 Å (Neo1 [2]) |
| --- | --- | --- |
| lyso-PS | 50.3 ± 8.8 | – |
| Nc1ncnc2c1ncn2[C@@H]1O[C@H](COP(=O)(O)OP(=O)(O)CP(=O)(O)O)[C@@H](O)[C@H]1O [AMPPCP] | – | the AMPPCP density is clear and the molecule stabilizes the interface between the N and P domains |
